# Measurements as given in PMC11189555, “Aryl amino acetamides prevent Plasmodium falciparum ring development via targeting the lipid-transfer protein PfSTART1” (Nature Communications, 2024).
# pEC50: −log10 of the molar value. “And” between values parts separate entries of the source, which are not always exact repeats. Equal values may be shown once. Read-outs that look alike come from different tables or passages of the source.
# How the values were obtained:
# CR-N309K parasites = test: Growth inhibition assay (72 h, LDH activity); format: cell-based, Plasmodium falciparum; settings: for inhibition at 5 µM: read-out: NORMALISED (growth inhibition, LDH absorbance)
# Experimental: (§1) Parasite growth assays with inhibitory compounds were performed as per[11] and are fully described in the Supplementary Information.
# (§2) Molecular biology and transfection of P. falciparum: CRISPR method.
# (§3) The full 5’ homology region of pfstart1 (either WT, N309K or N330K) was amplified from pPfSTART1-HA-2A-Neo-glmS with the same 5’ BglII primer and a new 3’ primer that replaced with PstI with SpeI and introduced a stop codon. The PCR product was then digested with BglII and SpeI and inserted into similarly digested p1.2 parasite vector2. The p1.2 vector had previously been inserted with a homology region amplified from the 3’ end of the pfstart1 gene (3’HB) to form a second homology block for double recombination. The primers used to amplify 3’HB are listed primers listed in […]
# (§4) 60 μg of p1.2-PfSTART1(WT/N309K/N330K) plasmid was linearised with KasI, precipitated in 3 M sodium acetate and ethanol (70% final concentration) overnight at -20°C. The DNA pellet was washed in cold 70% ethanol and resuspended in cytomix 3.
# (§5) 50 μ M of crRNA ( Table S 2) and 50 μM of tracRNA (Integrated DNA Technologies) were allowed to form a duplex (5 min at 95°C), and Cas9 enzyme (Integrated DNA Technologies) was added, and incubated for 20 min at room temperature 4. This crRNA -tracRNA -Cas9 mix was added to each DNA preparation and transfected to 3D7 ring parasites using the Bio -Rad Gene Pulser at 310 V and 950 μF.
# (§6) Parasites containing the transfected DNA were selected using 2.5 nM WR99210 (Jacobus). Parasites lines were cloned using limiting dilution. Correct integration was tested by PCR (using primer START_5’UTR.F and START_Int.R1 , Table S 2), and sequencing was done using the primers START_3F and START_Int.R2 (Table S 2).
# (§7) Growth inhibition assays. Synchronised ring-stage parasites (0.3-0.6% parasitemia, 2% haematocrit) were grown for 72 h in a serial-dilution of the compound under […]
# (§8) and compound 4. Note that M-833 was first purchased from MolPort (MolPort -002-267-916) then made in-house at WEHI: the differences observed in EC50s across experiments are attributed to the different batches of M -833. For some experiments, 0, 0.25 or 2.5 mM of glucosamine (GlcN) was also added. Experiments were set up in technical duplicates or triplicates. Following a freeze -thaw cycle, lactate dehydrogenase (LDH) activity was assessed as an indicator of parasite growt h 5. 30 μL of parasite culture was incubated for 30 min in the dark with 75 μL Malstat mixture (0.1 M Tris pH 9.0, 20 g/L lactic acid, pH 7.5, 0.2% Triton-X100, 0.5 g/L acetylpyridine adenine dinucleotide (APAD, Sigma), 200 μg/mL nitroblue tetrazolium (NBT; Sigma), 1 μg/mL phenozine ethosulfate (PES; Sigma)). Absorbance was then measured at 650 nm, transformed using the formula below, plotted against the logarithm of the concentrations, and a non-linear regression (log(inhibitor) vs. response, variable slope) was calculated using GraphPad Prism to assess the half-inhibitory […]
# (§9) Growth inhibition % = (1 − average(sample)− average(uRBC)) ∗ 100 […]
# (§10) The DMSO samples were also used to assess growth of parasite in the presence of 0.25 and 2.5 mM GlcN (normalised by DMSO in 0 mM GlcN).
# (§11) Egress, invasion & recovery assay. To measure egress, invasion and follow up recovery in the presence of different compounds, we adapted the method developed in6, using Hyp1-Nluc parasites7. These parasites episomally express the exported PEXEL protein Hyp1 (PF3D7_0113300) tagged with a NanoLuc luciferase (NLuc) and were selected with 2.5 nM WR99210 (Jacobus). Highly synchronised schizonts were obtained using ML10 (LifeArc) and sorbitol synchronisation, and Percoll-purified (the culture was gently layered over 67% Percoll (Cytiva) in RPMI, and centrifuged for 15 min at 1500 g and the schizont layer was collected and washed). In a 96-well plate, […]
# CR-N330K parasites = test: Growth inhibition assay (72 h, LDH activity); format: cell-based, Plasmodium falciparum
# Experimental: as §1, §2, §3, §4, §5, §6, §7, §8, §9, §10, §11
# [1] = 0.25 mM GlcN, dilution point 1 of 10, starting concentration 5 uM
# [2] = 0.25 mM GlcN, dilution point 2 of 10 from starting concentration 5 uM
# [3] = 0.25 mM GlcN, dilution point 3 of 10 from starting concentration 5 uM
# [4] = 0.25 mM GlcN, dilution point 6 of 10 from starting concentration 5 uM
# [5] = 2.5 mM GlcN, dilution point 1 of 10, starting concentration 5 uM
# [6] = 2.5 mM GlcN, dilution point 2 of 10 from starting concentration 5 uM
# [7] = 2.5 mM GlcN, dilution point 3 of 10 from starting concentration 5 uM
# [8] = 2.5 mM GlcN, dilution point 4 of 10 from starting concentration 5 uM
# [9] = 2.5 mM GlcN, dilution point 5 of 10 from starting concentration 5 uM
# [10] = 2.5 mM GlcN, dilution point 6 of 10 from starting concentration 5 uM
compound,measurement,setting,value
CC(C)(Nc1ccc(Cl)c(S(=O)(=O)N2CCOCC2)c1)C(=O)Nc1ccc(F)c(Cl)c1 [W-991],"NORMALISED (growth inhibition, LDH absorbance vs DMSO and uRBC)","CR-N309K parasites; 0 mM GlcN, W991 at 185.185 nM",14.1711 and 15.2813
same,"NORMALISED (growth inhibition, LDH absorbance vs DMSO and uRBC)","CR-N309K parasites; 0 mM GlcN, W991 at 555.556 nM",55.508 and 36.7800
same,"NORMALISED (growth inhibition, LDH absorbance vs DMSO and uRBC)","CR-N309K parasites; 0 mM GlcN, W991 at 1666.67 nM",87.9679 and 76.9970
same,"NORMALISED (growth inhibition, LDH absorbance vs DMSO and uRBC)","CR-N309K parasites; 0 mM GlcN, W991 at 5000 nM",96.4706 and 92.1927
same,"NORMALISED (growth inhibition, LDH absorbance)",CR-N309K parasites; [1],94.7776
same,"NORMALISED (growth inhibition, LDH absorbance)",CR-N309K parasites; [2],100.739 and 90.0516
same,"NORMALISED (growth inhibition, LDH absorbance)",CR-N309K parasites; [3],80.0443 and 56.9500
same,"NORMALISED (growth inhibition, LDH absorbance)","CR-N309K parasites; 0.25 mM GlcN, dilution point 5 of 10 from starting concentration 5 uM",17.9601 and 13.8403
same,"NORMALISED (growth inhibition, LDH absorbance)",CR-N309K parasites; [4],8.426 and 8.7470
same,"NORMALISED (growth inhibition, LDH absorbance)",CR-N309K parasites; [5],83.5476
same,"NORMALISED (growth inhibition, LDH absorbance)",CR-N309K parasites; [6],82.9906
same,"NORMALISED (growth inhibition, LDH absorbance)",CR-N309K parasites; [7],95.6522 and 78.1705
same,"NORMALISED (growth inhibition, LDH absorbance)",CR-N309K parasites; [8],71.5415 and 48.7789
same,"NORMALISED (growth inhibition, LDH absorbance)",CR-N309K parasites; [9],41.502 and 22.2365
same,"NORMALISED (growth inhibition, LDH absorbance)",CR-N309K parasites; [10],17.3913 and 10.0471
same,"NORMALISED (growth inhibition, LDH absorbance)","CR-N309K parasites; 2.5 mM GlcN, dilution point 8 of 10 from starting concentration 5 uM",5.138 and 4.2631
same,"NORMALISED (growth inhibition, LDH absorbance)","CR-N309K parasites; 2.5 mM GlcN, dilution point 9 of 10 from starting concentration 5 uM",11.3967 and 7.51
same,fold less susceptible than the 3D7 and CR-WT controls,CR-N309K parasites; Fig 4C,around 600 fold
same,fold sensitised on PfSTART1 knock-down with GlcN,CR-N309K parasites; Fig 4C,5 fold
same,pEC50,"CR-N309K parasites; Fig 4C, 0 mM GlcN, n = 3, read-out: EC50 W-991 (95% confidence interval)",> 6.15
same,inhibition at 5 µM,"CR-N309K parasites; Plasmodium falciparum, 0.25 mM GlcN, dilution point 1 of 10, starting concentration 5 uM",101%
same,inhibition at 5 µM,"CR-N309K parasites; Plasmodium falciparum, 2.5 mM GlcN, dilution point 1 of 10, starting concentration 5 uM",94.5%
same,pEC50,"CR-N309K parasites; Plasmodium falciparum, read-out: EC50 W-991 (95% confidence interval), Fig 4C, 0 mM GlcN, n = 3",6.16
same,pEC50,"CR-N309K parasites; Plasmodium falciparum, read-out: EC50 W-991 (95% confidence interval), Fig 4C, 0.25 mM GlcN, n = 3",6.44
same,pEC50,"CR-N309K parasites; Plasmodium falciparum, read-out: EC50 W-991 (95% confidence interval), Fig 4C, 2.5 mM GlcN, n = 3",6.86
same,pEC50,"CR-N309K parasites; read-out: EC50 W-991 (95% confidence interval), Fig 4C, 0 mM GlcN, n = 3",6.16
same,"NORMALISED (growth inhibition, LDH absorbance)","CR-N330K parasites; 0 mM GlcN, dilution point 1 of 10, starting concentration 5 uM",89.5809 and 91.9275
same,"NORMALISED (growth inhibition, LDH absorbance)","CR-N330K parasites; 0 mM GlcN, dilution point 2 of 10 from starting concentration 5 uM",82.5498 and 75.3344
same,"NORMALISED (growth inhibition, LDH absorbance)",CR-N330K parasites; [1],90.7025
same,"NORMALISED (growth inhibition, LDH absorbance)",CR-N330K parasites; [2],83.8227
same,"NORMALISED (growth inhibition, LDH absorbance)",CR-N330K parasites; [3],67.3993 and 45.0538
same,"NORMALISED (growth inhibition, LDH absorbance)",CR-N330K parasites; [4],5.889 and 5.4992
same,"NORMALISED (growth inhibition, LDH absorbance)",CR-N330K parasites; [5],66.3651 and 90.1101
same,"NORMALISED (growth inhibition, LDH absorbance)",CR-N330K parasites; [6],62.0066 and 84.8366
same,"NORMALISED (growth inhibition, LDH absorbance)",CR-N330K parasites; [7],63.3224 and 83.4457
same,"NORMALISED (growth inhibition, LDH absorbance)",CR-N330K parasites; [8],52.3849 and 74.2725
same,"NORMALISED (growth inhibition, LDH absorbance)",CR-N330K parasites; [9],40.7072 and 51.6938
same,"NORMALISED (growth inhibition, LDH absorbance)",CR-N330K parasites; [10],28.9474 and 29.6954
